Structures can show the parent of a compound that is named as a salt. Where two headings read alike, the source gives them in different places.
Tests used:
[1] = system: rats with spontaneous hypertension (adult MHS rats) fed with high fat diet; assay: Systolic pressure in rats with spontaneous hypertension accompanied by dyslipidemia (Example 4); type: in vivo, rat; settings: for systolic pressure: B 0.4 mg/kg, C 0.8 mg/kg, D 0.4 mg/kg+0.8 mg/kg, Mean ± SD
Method: (§1) 5-month-old rats with spontaneous hypertension (adult MHS rats), half males and half females, were fed with high fat diet every day (1.0% of cholesterol, 0.2% of propylthiouracil, 0.5% of sodium cholate, 5.0% of lard, 1.0% of methionine and 92.3% of basal diet) for four weeks; after four weeks, the basal systolic pressure and lipid levels in rats weighing 200-240 g were determined. Rats with hypertension accompanied with dyslipidemia were evenly divided into 4 groups with 12 rates in each group. The four groups were respectively as follows: solvent control group (A), lercanidipine group (lercanidipine hydrochloride, 0.4 mg/kg) (B), atorvastatin group (atorvastatin calcium, 0.8 mg/kg) (C), and lercanidipine/atorvastatin compound group (lercanidipine hydrochloride+atorvastatin calcium, 0.4 mg/kg+0.8 mg/kg) (D). Each group of drugs was formulated with physiological saline, and were administered to rats by gavage once a day for 4 consecutive weeks. Rats were measured 2 hours after administration at the end of each week for the systolic pressure and total serum cholesterol levels and so on.

[2] = system: SD rats with hypertension accompanied by dyslipidemia; assay: Serum TC and TG in experimental rats with hypertension accompanied by dyslipidemia (Example 5); type: in vivo, rat; settings: for TC / TG: gavage once a day, serum after 20 weeks, Mean ± SD; for TC and TG as compared with the solvent control group (in words): end of week 20, lercanidipine 0.5 mg/kg, atorvastatin 1.0 mg/kg, compound 0.5 mg/kg+0.5/1.0/2.0 mg/kg, positive control 0.5 mg/kg+1.0 mg/kg
Method: SD rats, weighing 150-180 g, were anaesthetized by intraperitoneal injection with chloral hydrate (320 mg/kg). The abdominal cavity was opened, and the left renal artery was separated and was restricted with 0.2 mm silver clip. […] Rats in normal control group were fed with normal diet. After four weeks, systolic pressure was measured in rats, serum total cholesterol (TC) and triglyceride (TG) levels were determined by taking blood from tail vein.
(§2) 140 rats with hypertension accompanied by dyslipidemia were evenly divided into 7 groups with 20 rats in each group according to blood pressure and lipid levels, which were respectively solvent control group, lercanidipine group (lercanidipine hydrochloride, 0.5 mg/kg), atorvastatin group (atorvastatin calcium, 1.0 mg/kg), lercanidipine/atorvastatin compound group 1 (lercanidipine hydrochloride+atorvastatin calcium, 0.5 mg/kg+0.5 mg/kg), lercanidipine/atorvastatin compound group 2 (lercanidipine hydrochloride+atorvastatin calcium, 0.5 mg/kg+1.0 mg/kg), lercanidipine/atorvastatin compound group 3 (lercanidipine hydrochloride+atorvastatin calcium, 0.5 mg/kg+2.0 mg/kg), and positive control group (amlodipine besylate+atorvastatin calcium, 0.5 mg/kg+1.0 mg/kg).
(§3) Another 20 normal rats served as normal control group. Rats with hypertension were continued to be fed with the high-fat diet, and rats in normal group were fed with normal diet. Each group of drugs was formulated with physiological saline, and for the normal control group and solvent control group rats, same volume of physiological saline were administered. Rats were administered by gavage once a day for 20 consecutive weeks. Rats were weighed once a week, and the dosage was adjusted based on the weight. Blood pressures in different time points before and after administration were measured respectively to calculate the magnitude of the decrease in blood pressure (systolic pressure before administration−systolic pressure after administration). Rats were sampled 20 weeks later, and the serum total cholesterol (TC) and triglyceride (TG) levels were determined. The corresponding parameters for each group were represented with the mean±standard deviation (Mean±SD), and t-test was used to compare different groups.

[3] = system: rats with spontaneous hypertension (adult MHS rats) fed with high fat diet; assay: Total serum cholesterol in rats with spontaneous hypertension accompanied by dyslipidemia (Example 4); type: in vivo, rat; settings: for total cholesterol: B 0.4 mg/kg, C 0.8 mg/kg, D 0.4 mg/kg+0.8 mg/kg, Mean ± SD; for change in total cholesterol (in words): over 4 weeks of administration, C and D p<0.05, B p>0.05
Method: as §1

[4] = system: SD rats with hypertension accompanied by dyslipidemia; assay: Decrease in systolic pressure in experimental (renal artery clip) rats with hypertension accompanied by dyslipidemia (Example 5); type: in vivo, rat; settings: for Degree of antihypertension: gavage once a day, 20 weeks, systolic pressure before minus after administration, Mean ± SD; for systolic pressure as compared with the solvent control group (in words): end of week 20, lercanidipine 0.5 mg/kg, atorvastatin 1.0 mg/kg, compound 0.5 mg/kg+0.5/1.0/2.0 mg/kg, positive control 0.5 mg/kg+1.0 mg/kg
Method: SD rats, weighing 150-180 g, were anaesthetized by intraperitoneal injection with chloral hydrate (320 mg/kg). The abdominal cavity was opened, and the left renal artery was separated and was restricted with 0.2 mm silver clip. At 8-10 weeks following the procedure, rats with systolic pressure ≧140 mmHg were recognized as hypertension rats. Rats with hypertension were administered with vitamin D3 by gavage in a total dosage of 600,000 U/kg in three days, and then were fed with high-fat diet every day (cholesterol 1.0%, propylthiouracil 0.2%, sodium cholate 0.5%, lard 5.0%, methionine 1.0%, basal diet 92.3%). Rats in normal control group were fed with normal diet. After four weeks, systolic pressure was measured in rats, serum total cholesterol (TC) and triglyceride (TG) levels were determined by taking blood from tail vein.
as §2, §3

[5] = cited from earlier work
[6] = 0 week (basal, before administration)
[7] = 1 week, 2 hours after administration, gavage once a day
[8] = 2 weeks, 2 hours after administration, gavage once a day
[9] = 3 weeks, 2 hours after administration, gavage once a day
[10] = 4 weeks, 2 hours after administration, gavage once a day

Row | Structure (SMILES) | systolic pressure [1, 6] | systolic pressure [1, 7] | systolic pressure [1, 8] | systolic pressure [1, 9] | systolic pressure [1, 10] | TC and TG as compared with the solvent control group (in words) [2] | total cholesterol [3, 6] | total cholesterol ([3]; 1 week, gavage once a day) | total cholesterol ([3]; 2 weeks, gavage once a day) | total cholesterol ([3]; 3 weeks, gavage once a day) | total cholesterol ([3]; 4 weeks, gavage once a day) | change in total cholesterol (in words) [3] | systolic pressure as compared with the solvent control group (in words) [4] | other results
1 | COC(=O)C1=C(C)NC(C)=C(C(=O)OC(C)(C)CN(C)CCC(c2ccccc2)c2ccccc2)C1c1cccc([N+](=O)[O-])c1 (stereo not drawn) [Group B, lercanidipine hydrochloride] | 162 ± 4.1 mmHg | 158 ± 3.7 mmHg | 149 ± 5.1 mmHg | 138 ± 3.4 mmHg | 135 ± 2.5 mmHg | improved | 8.49 ± 3.01 mmol/L | 7.95 ± 2.48 mmol/L | 7.55 ± 1.94 mmol/L | 7.28 ± 1.76 mmol/L | 7.01 ± 1.77 mmol/L | decreased | significantly decreased | change in systolic pressure (in words) ([1]; over 4 weeks of administration, p<0.01): decreased to normal blood pressure levels; TC ([2]; dosage 0.5 mg/kg): 8.27 ± 2.96 mmol/L; TG ([2]; dosage 0.5 mg/kg): 2.43 ± 1.21 mmol/L; Degree of antihypertension ([4]; dosage 0.5 mg/kg): 35.8 ± 9.65 mmHg
2 | CC(C)c1c(C(=O)Nc2ccccc2)c(-c2ccccc2)c(-c2ccc(F)cc2)n1CC[C@@H](O)C[C@@H](O)CC(=O)[O-].CC(C)c1c(C(=O)Nc2ccccc2)c(-c2ccccc2)c(-c2ccc(F)cc2)n1CC[C@@H](O)C[C@@H](O)CC(=O)[O-].[Ca+2] [Group C, atorvastatin calcium] | 160 ± 5.3 mmHg | 166 ± 2.9 mmHg | 161 ± 5.1 mmHg | 159 ± 4.2 mmHg | 158 ± 3.7 mmHg | significantly decreased | 8.75 ± 2.65 mmol/L | 7.51 ± 1.79 mmol/L | 6.67 ± 2.03 mmol/L | 6.15 ± 1.47 mmol/L | 5.72 ± 1.48 mmol/L | significant | improved | TC ([2]; dosage 1.0 mg/kg): 5.27 ± 4.03 mmol/L; TG ([2]; dosage 1.0 mg/kg): 1.49 ± 0.74 mmol/L; Degree of antihypertension ([4]; dosage 1.0 mg/kg): 2.4 ± 1.98 mmHg; lipid-lowering effect improved ([5]; comparing with the same dose of lovastatin): 51%; lipid-lowering effect improved ([5]; comparing with the same dose of pravastatin): 46%; lipid-lowering effect improved ([5]; comparing with the same dose of simvastatin): 38%
